Assay results: US20080287549A1, “METHODS AND MATERIALS FOR CONTROLLING RODENT POPULATIONS” (priority 2007, published 2008)

Key:
Serum testosterone = Serum testosterone in male rats after 7 days of treatment (direct RIA); format: in vivo; settings: 7 consecutive days; for Effect on serum testosterone levels compared to the control group: 0.2-20 mg/kg; for Average Decrease in Serum Testosterone Level (%): pre- vs post-treatment
Procedure: (§1) Male rats were given increasing doses (control=0 mg/kg, low=0.2 mg/kg, medium=2 mg/kg and high=20 mg/kg) of clomiphene, trans-clomiphene or cis-clomiphene for 7 consecutive days. Treatment was followed by a 7-day washout period. Serum testosterone levels and body weight were tested pre-treatment and post-treatment. Serum testosterone levels were analyzed by direct radioimmunoassay (RIA).
(§2) There were significant and unexpected decreases in serum testosterone and body weight among all treatment groups. […] There was a significant loss in both body weight and total serum testosterone with clomiphene that was dose-dependent.

[1] = Body weight in male rats after 7 days of treatment; format: in vivo; settings: 7 consecutive days; for Effect on body weight compared to the control group: 0.2-20 mg/kg; for Average Loss of Body Weight: pre- vs post-treatment
Procedure: as §1, §2

FSH, LH, testosterone = settings: cited from earlier work
[2] = cited from earlier work
[3] = Ernst et al.; cited from earlier work

Row | SMILES | Effect on serum testosterone levels compared to the control group (Serum testosterone) | Average Decrease in Serum Testosterone Level (%) (Serum testosterone; high=20 mg/kg) | Average Decrease in Serum Testosterone Level (%) (Serum testosterone; low=0.2 mg/kg) | Average Decrease in Serum Testosterone Level (%) (Serum testosterone; medium=2 mg/kg) | Effect on body weight compared to the control group [1] | Average Loss of Body Weight ([1]; high=20 mg/kg) [g] | Average Loss of Body Weight ([1]; low=0.2 mg/kg) [g] | Average Loss of Body Weight ([1]; medium=2 mg/kg) [g] | LH, FSH, and testosterone (FSH, LH, testosterone; after 2 months of treatment (Guay et al.)) | free and total testosterone (FSH, LH, testosterone; men after treatment (Tenover et al.)) | FSH, LH (FSH, LH, testosterone; young and old men after treatment (Tenover et al.)) | time for which significant blood level is detectable ([2]; following a single dose of clomiphene citrate) | in vivo clearance ([2]; in vivo) | estrogenic / antiestrogenic activity [3]
1 | CCN(CC)CCOc1ccc(C(=C(Cl)c2ccccc2)c2ccccc2)cc1 [Clomiphene, clomiphene] | significantly and statistically lowered serum testosterone levels | 89.7 | 65.2 | 83.5 | caused a loss in body weight | 69 | 24 | 41 | increase | increases | increases |  |  | 
2 | CCN(CC)CCOc1ccc(/C(=C(/Cl)c2ccccc2)c2ccccc2)cc1 [Cis-clomiphene, cis-clomiphene] | significantly and statistically lowered serum testosterone levels |  | 68.1 | 99.3 | caused a loss in body weight | 75 | 32 | 54 |  |  |  | in excess of one month | clears slowly | more potent and more estrogenic form
